These results are taken from patent publication US9751882B2, “Diaryl[A, G]quinolizidine compound, preparation method therefor, pharmaceutical composition, and uses thereof” (SHANGHAI INSTITUTE OF MATERIA MEDICA, CHINESE ACADEMY OF …, priority 2012, dated 2017).

Each structure is given as a SMILES string.

The target of one assay is dopamine D1 receptor (Macaca mulatta, UniProt O77680). Put plainly: Radioligand binding affinity on dopamine D1 receptor ([3H]-SCH23390). To be noted: D1 receptor protein expressed in HEK-293 cells. The protocol:
(§1) The compound of the invention at different concentrations (10^−5 M-10^−11 M), an isotope receptor ligand and a receptor protein were loaded into a reaction tube, incubated at 30° C. in a water bath for 60 min, and then terminated in a refrigerator. The mixture was filtered through suction filtration using GF/C glass fiber paper on a Millipore filter (millipore) cell sample collector, and dried. The resulting sample was placed into a 0.5 mL tube, added with 500 μL of liquid scintillation fluid, and counted for measuring the intensity of radioativity.
(§2) Firstly, the above […] were dissolved in DMSO and then diluted with double distilled water to the appropriate concentration (10^−5 M-10^−11 M).
(§3) (+) Butaclamo was purchased from RBI Company, GF/C glass fiber filter paper was purchased from Whatman Co., liquid scintillation fluid (dopamine D1, D2 receptors)/liposoluble scintillation fluid (5-HT1A. 5-HT2A receptor), Beckman LS-6500 multi-function liquid scintillation counter.

The target in another assay is dopamine D2 receptor (Rattus norvegicus, UniProt P61169). Put plainly: Radioligand binding affinity on dopamine D2 receptor ([3H]Spiperone). To be noted: D2 receptor protein expressed in HEK-293 cells. On the procedure:
as §1, §2, §3

The next assay has as its target T1, 5-HT1A receptor (Homo sapiens, UniProt P08908).
T1 sequence (P08908 1-422): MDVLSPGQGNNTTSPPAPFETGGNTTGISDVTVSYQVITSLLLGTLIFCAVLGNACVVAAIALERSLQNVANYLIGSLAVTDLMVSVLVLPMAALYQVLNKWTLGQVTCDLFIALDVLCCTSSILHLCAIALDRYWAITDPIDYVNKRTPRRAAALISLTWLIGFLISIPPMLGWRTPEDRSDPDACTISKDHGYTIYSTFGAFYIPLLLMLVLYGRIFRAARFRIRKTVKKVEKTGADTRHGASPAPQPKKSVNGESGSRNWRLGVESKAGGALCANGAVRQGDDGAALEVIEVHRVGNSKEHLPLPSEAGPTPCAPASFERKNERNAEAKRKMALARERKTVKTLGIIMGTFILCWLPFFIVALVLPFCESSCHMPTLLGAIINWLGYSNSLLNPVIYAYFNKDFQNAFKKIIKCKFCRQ
In words: Radioligand binding affinity on 5-HT1A receptor ([3H]8-OH-DPAT). To be noted: 5-HT1A receptor protein expressed in HEK-293 cells. The protocol:
(§4) (1) Determination of the affinity of the diarylo[a,g]quinolizines of formula (I) and derivatives thereof on dopamine D1, dopamine D2, 5-HT1A and 5-HT2A receptors.
as §1
For 5-HT1A receptor: isotope receptor ligand [3H]8-OH-DPAT; 5-HT1A receptor protein expressed in HEK-293 cells;
as §2, §3

The target of another assay is T2, 5-HT2A receptor (Homo sapiens, UniProt P28223).
T2 construct: expressed in transfected cells; host or cells: HEK-293
In words: Radioligand binding affinity on 5-HT2A receptor ([3H]-Ketanserin). To be noted: 5-HT2A receptor protein expressed in HEK-293 cells. The protocol: as §4, §1
For 5-HT2A receptor: isotope receptor ligand [3H]-Ketanserin; 5-HT2A receptor protein expressed in HEK-293 cells;
as §2, §3

dopamine D1 receptor, sequence (O77680 whole entry): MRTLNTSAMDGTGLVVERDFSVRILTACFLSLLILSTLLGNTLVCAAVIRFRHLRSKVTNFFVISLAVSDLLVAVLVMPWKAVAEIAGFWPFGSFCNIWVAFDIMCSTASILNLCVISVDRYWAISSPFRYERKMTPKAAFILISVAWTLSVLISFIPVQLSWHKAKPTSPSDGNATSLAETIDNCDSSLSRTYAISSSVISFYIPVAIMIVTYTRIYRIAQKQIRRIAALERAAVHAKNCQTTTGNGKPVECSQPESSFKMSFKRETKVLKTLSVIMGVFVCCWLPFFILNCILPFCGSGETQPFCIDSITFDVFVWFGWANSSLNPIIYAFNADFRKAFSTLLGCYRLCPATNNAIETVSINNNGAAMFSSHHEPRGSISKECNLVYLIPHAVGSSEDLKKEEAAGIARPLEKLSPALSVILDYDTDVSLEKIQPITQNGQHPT
dopamine D2 receptor, sequence (P61169 whole entry): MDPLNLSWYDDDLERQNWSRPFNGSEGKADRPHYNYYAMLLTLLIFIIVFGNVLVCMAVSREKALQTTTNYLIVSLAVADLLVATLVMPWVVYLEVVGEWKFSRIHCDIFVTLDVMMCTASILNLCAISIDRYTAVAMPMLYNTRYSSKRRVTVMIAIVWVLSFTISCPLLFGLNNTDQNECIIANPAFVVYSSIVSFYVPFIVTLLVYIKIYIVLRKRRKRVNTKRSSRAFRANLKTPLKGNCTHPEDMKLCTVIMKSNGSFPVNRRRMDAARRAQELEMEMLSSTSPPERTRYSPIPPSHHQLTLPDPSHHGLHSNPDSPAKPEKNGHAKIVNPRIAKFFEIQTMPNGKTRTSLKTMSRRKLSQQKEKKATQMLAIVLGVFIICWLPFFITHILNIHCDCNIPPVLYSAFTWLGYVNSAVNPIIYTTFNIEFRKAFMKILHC
T2 sequence (P28223 whole entry): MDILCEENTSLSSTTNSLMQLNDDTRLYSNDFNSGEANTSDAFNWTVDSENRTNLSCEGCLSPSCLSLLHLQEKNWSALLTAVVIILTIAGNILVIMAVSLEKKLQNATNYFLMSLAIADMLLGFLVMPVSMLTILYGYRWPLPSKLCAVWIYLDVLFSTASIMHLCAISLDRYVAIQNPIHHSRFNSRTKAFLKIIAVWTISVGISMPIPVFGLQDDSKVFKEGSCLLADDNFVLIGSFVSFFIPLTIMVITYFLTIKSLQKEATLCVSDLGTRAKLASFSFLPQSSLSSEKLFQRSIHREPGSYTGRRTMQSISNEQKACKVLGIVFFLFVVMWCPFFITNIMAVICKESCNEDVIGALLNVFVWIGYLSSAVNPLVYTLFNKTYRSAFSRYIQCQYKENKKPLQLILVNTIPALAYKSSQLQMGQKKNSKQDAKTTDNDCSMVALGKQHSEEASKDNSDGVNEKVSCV

As usually defined, the IC50 is the concentration needed to halve the response being measured. Higher therefore signals weaker potency in that assay. By Ki is commonly meant the equilibrium dissociation constant of an inhibitor or competing ligand from its target. A lower Ki goes with a stronger hold on the target. For the molecule `CCCCc1cc2c(s1)C[C@H]1c3cc(O)c(OC)cc3CCN1C2` [DS007, (S)-2-hydroxy-3-methoxy-10-n-butyl-5,8,12,12a-tetrahydro-6H-benzo[a]thieno[3,2-g]quinolizine], on dopamine D1 receptor, the “D1 receptor inhibition %” value came out at 97.62%, the half-maximal inhibitory concentration (IC50) turned out to be 113 ± 13 nM and affinity was put at a Ki of 62.2 ± 7.13 nM. In addition, on dopamine D2 receptor, the “D2 receptor inhibition %” value came out at 99.53%, the concentration for half-maximal inhibition (IC50) was 76.3 ± 8.46 nM and the affinity corresponds to a Ki of 17.6 ± 1.95 nM. Besides, at 5-HT1A receptor, the “5-HT1A receptor inhibition %” value stood at 87.03%, the IC50 was 1080 ± 96.7 nM and the affinity corresponds to a Ki of 864 ± 77.3 nM. Besides, the “5-HT2A receptor inhibition %” value on 5-HT2A receptor came to 53.34%.

As to `COc1cc2c(cc1O)[C@@H]1Cc3sc(CCCl)cc3CN1CC2` [DS013, (S)-2-hydroxy-3-methoxy-10-(2-chloroethyl)-5,8,12, 12a-tetrahydro-6H-benzo[a]thieno[3,2-g]quinolizine], at dopamine D1 receptor, the “D1 receptor inhibition %” value amounted to 98.64% and affinity was put at a Ki of 16.4 ± 2.81 nM. Besides, on dopamine D2 receptor, the “D2 receptor inhibition %” value was found to be 98.37%; the IC50 came out at 146 ± 7.19 nM; the affinity, expressed as Ki, was 34.4 ± 2.72 nM. Also, at 5-HT1A receptor, the “5-HT1A receptor inhibition %” value was 89.84%, the IC50 is 692 ± 102 nM and the inhibitory constant (Ki) amounted to 553 ± 81.6 nM. For the same molecule, the “5-HT2A receptor inhibition %” value at 5-HT2A receptor was 34.81%.
